# Test results: US7504508B2, “PGD2 receptor antagonists for the treatment of inflammatory diseases” (Millennium Pharmaceuticals, Inc., priority 2002, dated 2009)
# pKi: −log10 of the molar value.
# Target: T1, cloned human CRTH2 receptor (Homo sapiens, UniProt Q9Y5Y4)
# T1 construct: purchased Biosignal; host or cells: HEK-293 cells stably expressing human CRTH2 and G-alpha-16 (membranes)
# T1 sequence (Q9Y5Y4 1-395): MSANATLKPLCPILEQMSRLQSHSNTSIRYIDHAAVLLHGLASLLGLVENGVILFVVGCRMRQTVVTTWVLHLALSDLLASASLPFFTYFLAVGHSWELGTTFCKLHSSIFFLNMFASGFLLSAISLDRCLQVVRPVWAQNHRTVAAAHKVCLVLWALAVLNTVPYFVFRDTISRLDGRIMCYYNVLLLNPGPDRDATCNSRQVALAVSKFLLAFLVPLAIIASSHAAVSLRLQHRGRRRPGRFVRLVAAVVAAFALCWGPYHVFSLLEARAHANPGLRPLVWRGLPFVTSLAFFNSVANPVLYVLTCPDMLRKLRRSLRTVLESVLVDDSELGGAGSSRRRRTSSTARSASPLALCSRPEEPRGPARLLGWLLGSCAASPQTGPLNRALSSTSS
# Experiment: Radioligand membrane binding assay: inhibition of [3H] PGD2 binding to CRTH2 (Scintillation Proximity Assay)
# Conditions: inhibition of [3H] PGD2 binding to membranes of HEK-293 cells stably expressing human CRTH2; SPA; 10 point curve from 10 μM; room temperature, approximately 2 hours
# Method: This radioligand membrane binding assay evaluates the ability of compounds to inhibit [^3H] Prostaglandin D2 (PGD2) binding to the cloned human CRTH2 receptor stably expressed in HEK-293 cells (expressing human CRTh2 receptor and α subunit or the heteronimeric G protein 16 were prepared by Biosignal Company) using Scintillation Proximity Assay.
# A binding buffer containing 50 mM Tris-HCl (pH 7.5), 5 mM MgCl2 and 1 mM EDTA was prepared immediately prior to performing the assay. A bead/membrane solution at twice the final assay concentration comprising membranes (membranes bought from Biosignal) from the HEK-293 cells cloned to express CRTH2 receptor bound to and [3H] PGD2 at twotimes the final assay concentration were prepared and stored on ice before adding to wells. Cold PGD2 at twenty times the final assay concentration was prepared and stored on ice before adding to wells defining non-specific binding (NSB) corning plates #3653 were used for this assay.
# 10 mM stock concentrations of compounds in 100% DMSO were prepared and stored at room temperature. A 10 point concentration response curve was then constructed for each compound, starting at 10 μM (final assay concentration). The compounds were prepared at 40 times final assay concentrations with nine consequent-3-fold dilutions.
# 0.1 μl of each concentration of compound were added to the appropriate well of the 384 plate and 2 μl of cold PGD2 was added into the wells defining NSB. 20 μl of [^3H] PGD2 and then 20 μl of 2× of bead/membrane solution were then added to each well.
# The plates were allowed to incubate at room temperature for approximately 2 hours and then counted on Packard Topcount using SPA tritium protocol for 1 minute/well.
# The percent inhibition of PGD2 binding (PGD2 used at the KD value or lower) to the HEK-293 cell membranes was determined, the assay was always run as duplicate for n=1 for a total of n=2.
row,SMILES,pKi
1,"CC(=O)N(c1ccccc1)[C@@H]1C[C@H](C)N(C(=O)c2sc(-c3ccccc3)nc2C)c2ccccc21 (racemic) [Compound A-16, (±)-Cis-N-[2-methyl-1-(4-methyl-2-phenyl-thiazole-5-carbonyl)-1,2,3,4-tetrahydro-quinolin-4-yl]-N-phenyl-acetamide]",> 5.00
2,"CC(=O)N(c1ccccc1)[C@H]1C[C@@H](C)N(C(=O)c2ccno2)c2ccccc21 [Compound A-70, (2R,4S)-cis-N-[1-(isoxazole-5-carbonyl)-2-methyl-1,2,3,4-tetrahydro-quinolin-4-yl]-N-phenyl-acetamide]",> 5.00
3,"CC(=O)N(c1ccccc1)[C@@H]1C[C@H](C)N(C(=O)c2c(F)cc(F)cc2F)c2ccccc21 (racemic) [Compound A-24, (±)-Cis-N-[2-methyl-1-(2,4,6-trifluoro-benzoyl)-1,2,3,4-tetrahydro-quinolin-4-yl]-N-phenyl-acetamide]",> 5.00
4,"C[C@H]1C[C@@H](N(C(=O)CCc2ccccc2)c2ccccc2)c2ccccc2N1C(=O)c1ccc(F)cc1 (racemic) [Compound A-73, (±)-Cis-N-[1-(4-fluoro-benzoyl)-2-methyl-1,2,3,4-tetrahydro-quinolin-4-yl]-3,N-diphenyl-propionamide]",> 5.00
5,"CC(=O)N(c1ccccc1)[C@@H]1C[C@H](C)N(C(=O)c2ccccc2C)c2ccccc21 (racemic) [Compound A-153, (±)-Cis-N-[2-methyl-1-(2-methyl-benzoyl)-1,2,3,4-tetrahydro-quinolin-4-yl]-N-phenyl-acetamide]",> 5.00
6,"CCC(=O)N(c1ccccc1)C1CC(C)N(C(=O)C2CN(CC)CCO2)c2ccccc21 (racemic) [Compound A-82, (±)-Cis-N-[1-(4-Ethyl-morpholine-2-carbonyl)-2-methyl-1,2,3,4-tetrahydro-quinolin-4-yl]-N-phenyl-propionamide]",> 5.00
7,"COc1cccc(C(=O)N2c3ccccc3[C@@H](N(C(C)=O)c3ccccc3)C[C@@H]2C)c1 (racemic) [Compound A-124, (±)-Trans-N-[1-(3-methoxy-benzoyl)-2-methyl-1,2,3,4-tetrahydro-quinolin-4-yl]-N-phenyl-acetamide]",> 4.22
8,CC(=O)N(c1ccccc1)C1CC(C)N(C(=O)c2ccc(F)cc2)c2ccccc21 (centres unmarked) [Compound A-53],> 4.22
9,"CC(=O)N(c1ccccc1)[C@@H]1C[C@H](C)N(C(=O)c2cc(C)nn2C)c2ccccc21 (racemic) [Compound A-159, (±)-Cis-N-[1-(2,5-dimethyl-2H-pyrazole-3-carbonyl)-2-methyl-1,2,3,4-tetrahydro-quinolin-4-yl]-N-phenyl-acetamide]",> 5.00
10,"CC(=O)N(c1ccccc1)[C@@H]1C[C@H](C)N(C(=O)c2sc(C)nc2C)c2ccccc21 (racemic) [Compound A-67, (±)-Cis-N-[1-(2,4-dimethyl-thiazole-5-carbonyl)-2-methyl-1,2,3,4-tetrahydro-quinolin-4-yl]-N-phenyl-acetamide]",> 5.00
11,"COc1cccc(C(=O)N2c3ccccc3[C@H](N(C(=O)c3ccno3)c3ccccc3)C[C@@H]2C)c1 (racemic) [Compound A-55, (±)-Cis-isoxazole-5-carboxylic acid [1-(3-methoxy-benzoyl)-2-methyl-1,2,3,4-tetrahydro-quinolin-4-yl]-phenyl-amide]",> 5.00
12,"COc1cccc(C(=O)N2c3ccccc3[C@H](N(C(=O)C3CCCCC3)c3ccccc3)C[C@@H]2C)c1 (racemic) [Compound A-54, (±)-Cis-cyclohexanecarboxylic acid [1-(3-methoxy-benzoyl)-2-methyl-1,2,3,4-tetrahydro-quinolin-4-yl]-phenylamide]",> 5.00
13,"CCC(=O)N(c1ccccc1)[C@@H]1C[C@H](C)N(C(=O)c2ccc(-c3ccc(C(F)(F)F)cc3Cl)o2)c2ccccc21 (racemic) [Compound A-143, (±)-Cis-N-{1-[5-(2-chloro-4-trifluoromethyl-phenyl)-furan-2-carbonyl]-2-methyl-1,2,3,4-tetrahydro-quinolin-4-yl}-N-phenyl-propionamide]",> 5.00
14,"CC(=O)N(c1ccccc1)[C@@H]1C[C@H](C)N(C(=O)C2CCCCC2)c2ccccc21 (racemic) [Compound A-157, (±)-Cis-N-(1-cyclohexanecarbonyl-2-methyl-1,2,3,4-tetrahydro-quinolin-4-yl)-N-phenyl-acetamide]",> 5.00

# Second part, the molecule after the results:
row,pKi,SMILES
1,> 5.00,"CCC(=O)N(c1ccc(Cl)cc1)C1CC(C)N(C(=O)c2ccc(F)cc2)c2ccc(/C=C/C(=O)O)cc21 (racemic) [Compound B-73, (±)-Cis-3-[4-[(4-chloro-phenyl)-propionyl-amino]-1-(4-fluoro-benzoyl)-2-methyl-1,2,3,4-tetrahydro-quinolin-6-yl]-acrylic acid]"
2,> 5.00,"CCC(=O)N(c1ccc(Cl)cc1)[C@@H]1C[C@H](C)N(C(=O)c2ccc(F)cc2)c2ccc(OCC(=O)O)cc21 (racemic) [Compound B-65, (±)-Cis-[4-[(4-chloro-phenyl)-propionyl-amino]-1-(4-fluoro-benzoyl)-2-methyl-1,2,3,4tetrahydro-quinolin-6-yloxy]-acetic acid]"
3,> 5.00,"CCC(=O)N(c1ccc(Cl)cc1)[C@@H]1C[C@H](CO)N(C(=O)c2ccc(F)cc2)c2ccccc21 (racemic) [Compound B-105, (±)-Cis-N-(4-chloro-phenyl)-N-[1-(4-fluoro-benzoyl)-2-hydroxymethyl-1,2,3,4-tetrahydro-quinolin-4-yl]-propionamide]"
4,> 5.00,"CCOC(=O)[C@H]1C[C@@H](N(C(C)=O)c2ccccc2)c2ccccc2N1C(=O)c1ccc(F)cc1 (racemic) [Compound B-101, (±)-Cis-4-(acetyl-phenyl-amino)-1-(4-fluoro-benzoyl)-1,2,3,4-tetrahydro-quinoline-2-carboxylic acid ethyl ester]"
5,> 5.00,CCOCCOc1ccc2c(c1)C(N(C(=O)CC)c1ccc(Cl)cc1)CC(C)N2C(=O)c1ccc(F)cc1 (centres unmarked) [Compound B-68]
6,> 4.22,"COc1cccc(C(=O)N2c3ccccc3C(N(C(C)=O)c3ccccc3)CC2(C)C)c1 (centres unmarked) [Compound F-1, N-[1-(3-Methoxy-benzoyl)-2,2-dimethyl-1,2,3,4-tetrahydro-quinolin-4-yl]-N-phenyl-acetamide]"
7,> 5.00,"COc1ccc(C(=O)N2c3ccccc3[C@H](N(C(C)=O)c3ccc(C(C)(C)C(=O)O)cc3)C[C@@H]2C)cc1 [Compound D-1, (2S,4R)-2-(4-{Acetyl-[1-(4-methoxy-benzoyl)-2-methyl-1,2,3,4-tetrahydro-quinolin-4-yl]-amino}-phenyl)-2-methyl-propionic acid]"
8,> 5.00,"CC(=O)N(c1ccc(Cl)cc1)[C@H]1C[C@@H](C)N(C(=O)c2ccc(F)cc2)c2ccccc21 [Compound B-26, (2R,4S)-cis-N-(4-chloro-phenyl)-N-[1-(4-fluoro-benzoyl)-2-methyl-1,2,3,4-tetrahydro-quinolin-4-yl]-acetamide]"
9,> 5.00,"COc1cccc(C(=O)N2c3c(C)cccc3[C@H](N(C(C)=O)c3ccc(Cl)cc3)C[C@@H]2C)c1 (racemic) [Compound B-74, (±)-Cis-N-(4-chloro-phenyl)-N-[1-(3-methoxy-benzoyl)-2,8-dimethyl-1,2,3,4-tetrahydro-quinolin-4-yl]-acetamide]"
10,> 5.00,"CCC(=O)N(c1ccc(Cl)cc1)[C@@H]1C[C@H](COC)N(C(=O)c2ccc(F)cc2)c2ccccc21 (racemic) [Compound B-107, (±)-Cis-N-(4-chloro-phenyl)-N-[1-(4-fluoro-benzoyl)-2-methoxymethyl-1,2,3,4-tetrahydro-quinolin-4-yl]-propionamide]"
11,> 5.00,"CCN(CC)c1ccc(N(C(C)=O)[C@@H]2C[C@H](C)N(C(=O)c3ccc(N(C)C)cc3)c3cc(N(CC)CC)ccc32)cc1 (racemic) [Compound B-84, (±)-Cis-N-[7-diethylamino-1-(4-dimethylamino-benzoyl)-2-methyl-1,2,3,4-tetrahydro-quinolin-4-yl]-N-(4-diethylamino-phenyl)-acetamide]"
12,> 5.00,"COc1cccc(C(=O)N2c3ccccc3[C@@H](N(C(C)=O)c3ccc(Cl)cc3)C[C@H]2C)c1 [Compound B-9, (2R,4S)-cis-N-(4-chloro-phenyl)-N-[1-(3-methoxy-benzoyl)-2-methyl-1,2,3,4-tetrahydro-quinolin-4-yl]-acetamide]"
